Measured values published in paper PMC7665585, “Antidepressive effect of an inward rectifier K^+ channel blocker peptide, tertiapin-RQ” (PLoS ONE, 2020).
Bridge positions count the residues as written; N and C are the ends. Peptide text beside a SMILES is read from it.

Experiments:
Male ICR mice [1] = assay: Wheel running test; assay type: in vivo, mouse; details: i.c.v.; 4 min, immediately after EPM
Protocol: We performed mouse behavioral experiments in accordance with our previous study. Male ICR mice (n = 199 in total) aged 5 weeks old were purchased from Shimizu Laboratory Supplies (Kyoto, Japan) and maintained in an animal facility for 7–12 days. They had free access to food and water and were kept in a 12-h light/dark cycle (08:00–20:00). Experiments were carried out between 11:00 and 17:00 in a quiet and air-conditioned experimental room, to which mice were habituated for 30–60 min before each experiment. Animal experiments were performed in accordance with the guidelines of the Physiological Society of Japan and were approved by the Committee for Animal Experiments of Kurashiki University of Science and the Arts. Peptides were dissolved in phosphate-buffered saline (PBS). Peptides were injected intracerebroventricularly (i.c.v.) 30 min before behavioral tests (typically 5 μL/mouse), according to a previous study. The mouse was placed into an anesthetizing jar, to which isoflurane (0.2 mL) was added immediately before. […]
Spontaneous motor activity was measured with a multifunctional activity wheel (MK-770, Muromachi Kikai, Tokyo, Japan). […] The number of rotations was counted automatically.

mouse GIRK1/4 = biological target: T1, mouse GIRK1/4 (Mus musculus, UniProt P48545+P63250); assay: Whole-cell patch-clamp of GIRK1/4 in transfected 293T cells; assay type: cell-based; details: 293T cells transiently expressing mouse GIRK1/4, high K+ Tyrode solution (Fig 7); read-out: IC50, GIRK1/4 conductance
T1 construct: expressed in transfected cells; host or cells: 293T cells, transient calcium phosphate transfection, pCMV6 plasmid
T1 sequence (P63250 1-501): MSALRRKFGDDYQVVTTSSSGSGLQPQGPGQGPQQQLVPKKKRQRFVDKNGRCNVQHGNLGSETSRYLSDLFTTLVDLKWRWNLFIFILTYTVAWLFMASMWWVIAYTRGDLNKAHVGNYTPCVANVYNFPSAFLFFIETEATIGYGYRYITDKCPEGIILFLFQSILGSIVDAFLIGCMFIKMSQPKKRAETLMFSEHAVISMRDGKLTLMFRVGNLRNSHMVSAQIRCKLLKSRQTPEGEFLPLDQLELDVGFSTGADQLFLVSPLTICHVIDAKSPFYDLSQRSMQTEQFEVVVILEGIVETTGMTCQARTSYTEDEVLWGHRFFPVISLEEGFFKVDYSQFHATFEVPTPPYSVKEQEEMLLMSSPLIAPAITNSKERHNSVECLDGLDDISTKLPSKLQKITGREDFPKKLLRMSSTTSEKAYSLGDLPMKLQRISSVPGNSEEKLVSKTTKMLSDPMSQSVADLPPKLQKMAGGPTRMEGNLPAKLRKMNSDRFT
T1 sequence (P48545 1-419): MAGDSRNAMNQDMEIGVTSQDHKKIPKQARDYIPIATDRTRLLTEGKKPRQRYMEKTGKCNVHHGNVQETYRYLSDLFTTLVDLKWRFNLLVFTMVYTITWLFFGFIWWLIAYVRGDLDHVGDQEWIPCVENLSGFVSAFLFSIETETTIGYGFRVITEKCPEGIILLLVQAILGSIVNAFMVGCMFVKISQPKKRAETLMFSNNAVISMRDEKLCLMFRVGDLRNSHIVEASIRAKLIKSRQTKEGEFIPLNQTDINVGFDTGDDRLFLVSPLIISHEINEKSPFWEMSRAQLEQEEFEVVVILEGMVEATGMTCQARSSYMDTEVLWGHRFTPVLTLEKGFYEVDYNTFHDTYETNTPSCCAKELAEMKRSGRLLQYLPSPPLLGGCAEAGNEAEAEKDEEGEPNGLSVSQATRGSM
Excerpt: The cDNAs for rat ROMK and mouse GIRK1, 2, and 4 were generously donated by Drs Mikio Hayashi (Kansai Medical University) and David Weaver (Vanderbilt University). The ROMK channels were stably expressed by a cell line, 208–4, which was transduced with lentiviral vectors coexpressing the channel and green fluorescent protein (GFP) as described previously. The GIRK genes, cloned in a pCMV6 plasmid (Origene Technologies Inc, Rockville, MD), were transiently expressed in 293T cells with calcium phosphate transfection. GIRK channel currents were recorded 24 h after transfection.
Cells grown on small cover glasses (3 × 18 mm) were placed in a recording chamber. Whole-cell currents were recorded in Tyrode solution using an Axopatch 200B amplifier (Axon Instruments, Foster City, CA) at 25°C. Tyrode solution contained (in mM): NaCl 140, KCl 5.4, NaH2PO4 0.33, CaCl2 2, MgCl2 1, HEPES 5, and glucose 5.5 (pH 7.4 adjusted with NaOH). […] Whole-cell currents were recorded 60 sec after the peptide application and those from 100 to 300 msec of the step pulses were averaged. […] Whole-cell conductance was calculated as the slope of the current-voltage (I-V) relationship from -140 mV to -100 mV and normalized to the initial value (0 μM TPN), in which BaCl2-resistant current was subtracted and indicted as a percentage.

Male ICR mice [2] = assay: Open field test (OFT); assay type: in vivo, mouse; details: i.c.v., 5 min
Protocol: We performed mouse behavioral experiments in accordance with our previous study. Male ICR mice (n = 199 in total) aged 5 weeks old were purchased from Shimizu Laboratory Supplies (Kyoto, Japan) and maintained in an animal facility for 7–12 days. They had free access to food and water and were kept in a 12-h light/dark cycle (08:00–20:00). Experiments were carried out between 11:00 and 17:00 in a quiet and air-conditioned experimental room, to which mice were habituated for 30–60 min before each experiment. Animal experiments were performed in accordance with the guidelines of the Physiological Society of Japan and were approved by the Committee for Animal Experiments of Kurashiki University of Science and the Arts. Peptides were dissolved in phosphate-buffered saline (PBS). Peptides were injected intracerebroventricularly (i.c.v.) 30 min before behavioral tests (typically 5 μL/mouse), according to a previous study. The mouse was placed into an anesthetizing jar, to which isoflurane (0.2 mL) was added immediately before. After confirming that the mouse was deeply anesthetized we injected the peptide into the right cerebral ventricle over 30 seconds and the injection needle was kept for 1 min after the injection (i.c.v. coordinates: 0 mm caudal to bregma, 1.0 mm lateral to the midline, and 3.5 mm below the skull). The mouse was placed in a cage set on a heating pad (approximately 33°C) for a few minutes until it spontaneously started to move, and then it was put back into its home cage. Each animal was used only once, except for the wheel running test, which was carried out immediately after the elevated plus-maze.
The open-field test (OFT) was performed in accordance with a previous report. The open-field consisted of a square (90 × 90 cm), in which the floor was divided into 16 equal squares. After a mouse was placed in a corner of the open field facing the wall, the number of the entries into the central squares and whole line crossings were counted for 5 min. After the removal of the animal, the apparatus was cleaned and wiped.

| SMILES | spontaneous rotations in activity wheel (Male ICR mice [1]) | IC50 (mouse GIRK1/4) | entries to the central area in OFT (Male ICR mice [2]) | number of total line crossings in OFT (Male ICR mice [2]) | central line crossings in OFT (Male ICR mice [2]; n = 6 and 7) |
| --- | --- | --- | --- | --- | --- |
| CC[C@H](C)[C@@H]1NC(=O)[C@H](CCCNC(=N)N)NC(=O)[C@H](CCCNC(=N)N)NC(=O)[C@H](CC(N)=O)NC(=O)[C@@H]2CSSC[C@@H](C(=O)NCC(=O)N[C@@H](CCCCN)C(=O)N[C@@H](CCCCN)C(N)=O)NC(=O)[C@H](CCCCN)NC(=O)[C@H](CCCCN)NC(=O)[C@H](Cc3c[nH]c4ccccc34)NC(=O)[C@H](CSSC[C@H](NC(=O)[C@H](CC(C)C)NC(=O)[C@H](C)N)C(=O)N[C@@H](CC(N)=O)C(=O)N2)NC(=O)[C@H](CCC(N)=O)NC(=O)[C@H](Cc2c[nH]cn2)NC(=O)[C@@H]2CCCN2C(=O)[C@H]([C@@H](C)CC)NC1=O [Peptide 2, TPN-RQ] (H-ALCNCNRRIIPHQCWKKCGKK-NH2; disulfide 3-14, 5-18) | decreased spontaneous motor activity | 1.25 µM |  |  |  |
| CC[C@H](C)[C@@H]1NC(=O)[C@H](CCCNC(=N)N)NC(=O)[C@H](CC(N)=O)NC(=O)[C@@H]2CSSC[C@@H](C(=O)NCC(=O)N[C@@H](CCCCN)C(=O)N[C@@H](CCCCN)C(N)=O)NC(=O)[C@H](CCCCN)NC(=O)[C@H](CCCCN)NC(=O)[C@H](Cc3c[nH]c4ccccc34)NC(=O)[C@H](CSSC[C@H](NC(=O)[C@H](CC(C)C)NC(=O)[C@H](C)N)C(=O)N[C@@H](CC(N)=O)C(=O)N2)NC(=O)[C@H](CCC(N)=O)NC(=O)[C@H](CC(C)C)NC(=O)[C@@H]2CCCN2C(=O)[C@H]([C@@H](C)CC)NC(=O)[C@H]([C@@H](C)CC)NC1=O [Peptide 3, TPN-LQ] (H-ALCNCNRIIIPLQCWKKCGKK-NH2; disulfide 3-14, 5-18; N-terminus and C-terminus assumed) | decreased |  | decreased | decreased | decreased |
